Source: US20260165936A1, “BIO-BASED SURFACTANT COMPOSITION FOR REDUCTION OF MULTISPECIES BIOFILM FORMATION IN ORAL CAVITY” (SKYLAB AG, priority 2023, published 2026)

Key:
[1] = system: dental plaque (biofilm) grown from fresh human saliva; test: Inhibition of biofilm formation on rough glass rods (biofilm dry weight); assay type: cell-based; details: for Average biofilm weight: biofilm grown 3 days on rough glass rods in human saliva, dry weight; for Biofilm inhibitory effect of the individual component alone compared to the control (in words): individual component without its partner, FIG. 2
Procedure: The aqueous solutions of sodium lauroyl sarcosinate, biosurfactant rhamnolipid and the mixture thereof at various concentrations were tested for inhibition of biofilm formation on the surface of rough glass rods. The test sample of the raw material contained sodium lauroyl sarcosinate at the level of 35%. The test sample of the raw material contained rhamnolipid at the level of 40%. Sterile water was used as a negative control, and the mouthwash Corsodyl, containing 0.2% chlorhexidine was used as a positive control. Dry biofilm mass was weighted to determine the amount of formed dental plaque. The dental plaque was grown for 3 days by immersion of rough glass rods into the fresh human saliva containing 0.1% saccharose. […] On Day 1 one treatment of the glass rods with the test component solutions, and on Days 2 and 3 two treatments of the glass rods with the test component solutions were made. At the end of Day 3 the biofilm was collected from the glass rods, and the plaque amount by dry weight (g) was determined. Lesser weight indicated higher efficacy against the dental plaque. Sterilized rods were fixed in the holders in the microbiological cabinet. Since that moment the rods and the holders were used as the integral units. On Day 1 the sterile glass rods were pre-treated for 2 minutes with the test component solutions taken in the amount of 5 mL. Then the glass rods were removed, washed in 5 mL of the sterile distilled water and immersed into 5 mL of saliva containing 0.1% saccharose. The tubes were placed into the rack and then into the incubator (t=37° C.) and on shaker (250 rpm) for about 18 hours. On Days 2 and 3 in the morning the rods were treated with the test component solutions, then placed into nutritive broth and returned into the incubator and on shaker. After 6 h incubation in the broth the rods were treated with the test component solution once again and transferred into the saliva with 0.1% glucose, and then returned into the incubator for 18 hours. On Day 4 the tubes with the rods were removed from the incubator and used for determination of the biofilm dry weight. For this purpose, the rods were dried and then weighted on analytical balance with the accuracy of 4 decimal places. The biofilm was removed after the rehydration, and the rods were weighted once again. The biofilm dry weight was determined from the equation: [formula]

dental plaque = details: second-generation anti-plaque agent; cited from earlier work

Compound	Average biofilm weight ([1]; aqueous solution 0.01%) [g]	Biofilm inhibitory effect of the individual component alone compared to the control (in words) [1]	Removal of dental plaque (dental plaque)	Dose dependence of dental plaque weight (in words) ([1]; 0.2 and 2% aqueous solutions, 10-fold increase in concentration)	Average biofilm weight ([1]; aqueous solution 0.2%) [g]	Average biofilm weight ([1]; aqueous solution 2%) [g]
rhamnolipid [Biosurfactant rhamnolipid]	0.0026	do not provide for any biofilm inhibitory effect compared to the control				
[H]/N=C(\N/C(=N/[H])NCCCCCCNC(=N)NC(=N)Nc1ccc(Cl)cc1)Nc1ccc(Cl)cc1 [chlorohexidine]			70-90%			
sodium lauroyl sarcosinate		do not provide for any biofilm inhibitory effect compared to the control		absence of obvious dose-dependent effect	0.0022	0.0020
